# From article PMC3397457, “Preclinical Evaluation of Anticancer Efficacy and Pharmacological Properties of FBA-TPQ, a Novel Synthetic Makaluvamine Analog” (Marine Drugs, 2012)
# Columns and labels:
# Mia PaCa-2 cells [1] = experiment: MTT cell survival assay, Mia PaCa-2; type: cell-based; settings: Homo sapiens, Mia PaCa-2, 72 h, read-out: Cytotoxicity IC50
# Protocol: (§1) We evaluated the effects of FBA-TPQ on the survival of several human pancreatic cancer cell lines, including HPAC (p53^+/+), Panc-1(p53^+/−), and Mia PaCa-2(p53^+/−), as well as normal IRM90 fetal fibroblast cells (Figure 2a). Cells were exposed to various concentrations of the test compound (0–10 µM) for 72 h, and cell survival rates were determined by the MTT assay, using a procedure reported previously. FBA-TPQ exerted potent effects against the test cancer cell lines, leading to significant decreases in cell viability.
# Human pancreatic cancer cells were obtained from the American Type Culture Collection (Rockville, MD). All cell culture media contained 10% FBS and 1% penicillin/streptomycin. […]
# The effect of the test compound on human pancreatic cancer cell viability, expressed as the percentage of cell survival, was determined using the MTT (3-(4,5-dimethylthiazol-2-yl)-2,5-diphenyl tetrazolium bromide) assay. […] The absorbance at 570 nm was recorded using an OPTImax microplate reader (Molecular Devices; Sunnyvale, CA, USA). The cell survival percentages were calculated by dividing the mean OD of compound-containing wells by that of DMSO-containing control wells. […]
# [2] = system: human pancreatic cancer cell lines (HPAC, Panc-1, Mia PaCa-2); experiment: MTT cell survival assay, pancreatic cancer cell lines taken together; type: cell-based; settings: 72 h
# Protocol: as §1
# The effect of the test compound on human pancreatic cancer cell viability, expressed as the percentage of cell survival, was determined using the MTT (3-(4,5-dimethylthiazol-2-yl)-2,5-diphenyl tetrazolium bromide) assay. The MTT assay is colorimetric assay for measuring the activity of enzymes that reduce MTT to formazan dyes, giving a purple color. Cells were grown in 96-well plates at 4–5 × 10^3 cells per well and exposed to different concentrations of the test compound (0, 0.1, 0.25, 0.5, 0.75, 1, 5 and 10 µM). […] The absorbance at 570 nm was recorded using an OPTImax microplate reader (Molecular Devices; Sunnyvale, CA, USA). The cell survival percentages were calculated by dividing the mean OD of compound-containing wells by that of DMSO-containing control wells. […]
# HPAC cells = experiment: Cell cycle distribution by flow cytometry, HPAC; type: cell-based, human; settings: 1 µM
# Protocol: (§2) The effects of FBA-TPQ on cell cycle distribution were analyzed using the previously reported methods; its effects appeared to be cell-line-dependent (Figure 2c). […] The differences in the responses of the different cell lines may be related to their expression of p53.
# (§3) To determine the effect of FBA-TPQ on the cell cycle, cells (2–3 × 10^5) were exposed to the test compounds (0, 0.1, 0.5 or 1 µM) and incubated for 24 h prior to analysis. Cells were trypsinized, washed with PBS, and fixed in 1.5 mL of 95% ethanol and 0.5 mL of 0.9% saline solution at 4 °C overnight, followed by incubation with RNAse and staining with propidium iodide (Sigma). The DNA content was determined by flow cytometry. The cell cycle distribution was evaluated by comparing with that of the control cells.
# Mia PaCa-2 cells [3] = experiment: Cell cycle distribution by flow cytometry, Mia PaCa-2; type: cell-based, human; settings: Mia PaCa-2, 1 µM
# Protocol: as §2, §3
# [4] = Stability in plasma and tissue samples; type: in vitro ADME, mouse; settings: RE within ±15%
# Protocol: The stability of FBA-TPQ was evaluated at two concentrations (0.5 and 5.0 µM). […] At the designated time points, the samples were extracted and analyzed using the established RRLC analytical method. The stability of FBA-TPQ was assessed by comparing the initial concentration (time 0) with the final concentration following incubation of the compound at the noted temperatures, and expressing this difference as a percentage of the initial concentration.
# [5] = Plasma protein binding by micro-ultrafiltration; type: in vitro ADME; settings: pooled mouse plasma, 37 °C 1 h, read-out: bound to plasma proteins (converted)
# Protocol: To determine the extent to which FBA-TPQ is bound by plasma proteins, pooled plasma samples were examined for their capacity to bind the compound at concentrations of 0.5 μM and 5 μM. FBA-TPQ was considerably bound to proteins in mouse plasma, with 72.32% ± 2.53%; and 77.78% ± 1.17% of the compound being bound to plasma proteins at concentrations of 0.5 μM and 5.0 μM, respectively. Extensive binding of a candidate compound to plasma proteins can impair its biodistribution and may therefore impact its therapeutic efficacy. However, compounds that are highly bound to proteins display longer half-lives, durations of action, and higher volumes of distribution.
# The extent of binding to mouse plasma proteins by FBA-TPQ was determined using a micro-ultrafiltration system as previously described. FBA-TPQ was dissolved in methanol and added to pooled mouse plasma to yield final concentrations of 0.5 µM and 5.0 µM. Control solutions were prepared in methanol to account for non-specific binding of FBA-TPQ to the filter membranes. Duplicate preparations of each concentration were incubated at 37 °C for 1 h, before being placed into the sample reservoirs of Amicon Centrifree® ultrafiltration tubes (30 kDa exclusion; Millipore).
# [6] = system: murine hepatic S9 fractions containing Phase I and II metabolic enzymes; experiment: S9 metabolism; type: in vitro ADME; settings: mouse hepatic S9, 10 μM, 60 min incubation
# Protocol: As a preliminary study of the metabolism of FBA-TPQ, the compound was incubated with S9 fractions containing Phase I and Phase II metabolic enzymes and their co-factors for 15, 30, 45, or 60 min. […] No specific peaks that seemed to correspond to unique metabolites were identified using the current RRLC method.
# A preliminary study of the metabolism of FBA-TPQ was done using murine hepatic S9 fractions containing Phase I and II metabolic enzymes. […] Duplicate aliquots of the mixtures were taken at 0, 15, 30, 45, and 60 min, and the samples were processed and analyzed. The percent of FBA-TPQ that was metabolized by Phase I and Phase II enzymes was calculated by comparing the initial concentration of the iminoquinone to the measured concentration following incubation.
# [7] = system: prostate, breast, and ovarian cancer cell lines; design: method as in PMID 19274441, PMID 19451594, PMID 21673964; settings: cited from earlier work
structure (smiles),measurement,setting,value
"O=C1C(NCc2ccc(F)cc2)=CC2=NCCc3c[nH]c1c32 [FBA-TPQ, 7-(4-fluorobenzylamino)-1,3,4,8-tetrahydropyrrolo[4,3,2-de]quinolin-8(1H)-one]",IC50,Mia PaCa-2 cells [1],320 ± 10 nM
same,"differences in IC50, normal IMR90 fibroblasts vs pancreatic cancer cells",[2],10–50 fold
same,cell cycle arrest,HPAC cells,arrest in the G2/M phase
same,cell cycle arrest,Mia PaCa-2 cells [3],arrest in the S phase
same,stability in plasma and tissue samples,[4]; 3 months at −80 °C,stable
same,stability in plasma and tissue samples,[4]; 2 h at 22 °C following three freeze/thaw cycles (−20 to 22 °C),stable
same,stability in plasma and tissue samples,"[4]; 24 h after preparation at 22 °C, low and high concentrations",stable
same,"fraction unbound at 1 h, 0.5 µM",[5]; 0.5 μM,0.277
same,"fraction unbound at 1 h, 5 µM",[5]; 5.0 μM,0.222
same,compound metabolized by Phase I components,[6],approximately 14.3%
same,compound metabolized by Phase II components,[6],~1.8%
same,IC50 values,[7],nanomolar/low micromolar
